Results from ChEMBL document CHEMBL1201862, “PubChem BioAssay data set” (2004).
Activity calls are given as the source filed them.

Experiments:
[1] = target: Voltage-gated inwardly rectifying potassium channel KCNH2 (Homo sapiens, UniProt Q12809); details: Potency;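 also: confirmatory quantitative high-throughput screen measuring inhibition of hERG channel activity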
[2] = target: T1, Sentrin-specific protease 8 (Homo sapiens, UniProt Q96LD8); type: functional
T1 sequence (Q96LD8 whole entry): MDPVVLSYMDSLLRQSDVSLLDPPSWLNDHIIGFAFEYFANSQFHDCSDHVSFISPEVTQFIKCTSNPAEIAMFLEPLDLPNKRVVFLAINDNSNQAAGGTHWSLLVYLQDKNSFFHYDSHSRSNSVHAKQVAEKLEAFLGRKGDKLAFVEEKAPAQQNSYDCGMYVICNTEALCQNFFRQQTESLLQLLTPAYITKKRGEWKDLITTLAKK

[3] = (§1) Counterscreen for antagonists of the orexin 1 receptor (OX1R; HCRTR1): Fluorescence-based cell-based high throughput dose response assay to identify antagonists of the parental CHO cell line. [Related pubchem assays (depositor defined):AID434989, AID435008, AID463079, AID485270, AID492963, AID492964, AID492965, AID493232, AID504699, AID504701]; type: functional
Orexin receptor type 2 [4] = target: T2, Orexin receptor type 2 (Homo sapiens, UniProt O43614); assay: Counterscreen assay for antagonists of the orexin 1 receptor (OX1R; HCRTR1): Homogeneous Time Resolved Fluorescence (HTRF)-based cell-based dose response assay for antagonists of the orexin 2 receptor (OX2R; HCRTR2), run by assay provider.; type: functional
T2 sequence (O43614 whole entry): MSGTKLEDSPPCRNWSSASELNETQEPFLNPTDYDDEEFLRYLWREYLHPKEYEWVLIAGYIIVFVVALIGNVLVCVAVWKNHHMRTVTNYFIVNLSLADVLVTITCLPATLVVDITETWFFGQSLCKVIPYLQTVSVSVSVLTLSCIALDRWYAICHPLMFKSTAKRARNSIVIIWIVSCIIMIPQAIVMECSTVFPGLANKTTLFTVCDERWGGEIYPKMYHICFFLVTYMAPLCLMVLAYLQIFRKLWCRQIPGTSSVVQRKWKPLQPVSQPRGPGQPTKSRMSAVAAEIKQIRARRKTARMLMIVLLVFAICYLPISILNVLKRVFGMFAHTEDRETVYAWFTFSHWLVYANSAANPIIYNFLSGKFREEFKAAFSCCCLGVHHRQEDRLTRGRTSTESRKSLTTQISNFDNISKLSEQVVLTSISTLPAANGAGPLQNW

[5] = target: T1, Sentrin-specific protease 8; type: functional; remark: listed apart in the source
CHO-K1 = assay: as §1, with “Homogeneous time resolved fluorescence (HTRF)-based” for “Fluorescence-based”, “cell-based” for “cell-based high throughput”, “CHO-K1” for “CHO”; type: functional; details: Cricetulus griseus;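 also: potency for inhibition of ATP-stimulated IP1 production as antagonists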
Orexin receptor type 2 [6] = target: T2, Orexin receptor type 2; assay: Counterscreen assay for antagonists of the orexin 1 receptor (OX1R; HCRTR1): Fluorescence-based cell-based dose response assay for antagonists of the orexin 2 receptor (OX2R; HCRTR2), run by assay provider.; type: functional
[7] = target: T3, Orexin/Hypocretin receptor type 1 (Homo sapiens, UniProt O43613); assay: (§2) Fluorescence-based cell-based high throughput dose response assay for antagonists of the orexin 1 receptor (OX1R; HCRTR1). [Related pubchem assays (depositor defined):AID434989, AID435008, AID463079, AID485270, AID492963, AID492964, AID492965, AID493232, AID504717, AID504718]; type: functional
T3 sequence (O43613 whole entry): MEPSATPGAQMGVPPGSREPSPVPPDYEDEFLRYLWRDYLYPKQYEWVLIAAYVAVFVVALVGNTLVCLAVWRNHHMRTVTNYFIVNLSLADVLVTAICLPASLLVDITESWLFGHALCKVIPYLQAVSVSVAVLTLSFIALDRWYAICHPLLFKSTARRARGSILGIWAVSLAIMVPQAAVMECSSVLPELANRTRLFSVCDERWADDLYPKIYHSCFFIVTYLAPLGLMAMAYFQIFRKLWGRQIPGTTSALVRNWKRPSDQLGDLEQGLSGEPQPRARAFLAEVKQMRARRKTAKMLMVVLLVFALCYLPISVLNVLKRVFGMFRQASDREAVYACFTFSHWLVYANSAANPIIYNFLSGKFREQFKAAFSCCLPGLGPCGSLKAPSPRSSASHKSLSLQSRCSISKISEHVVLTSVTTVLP

[8] = target: T3, Orexin/Hypocretin receptor type 1; assay: as §2, with “Homogeneous Time Resolved Fluorescence (HTRF)-based” for “Fluorescence-based”; type: functional
[9] = target: 5-hydroxytryptamine receptor 5A (Homo sapiens, UniProt P47898); assay: Counterscreen for agonists of OPRM1-OPRD1 heterodimerization: luminescence-based cell-based high throughput dose response assay to identify agonists of 5-hydroxytryptamine (serotonin) 5A receptor (HTR5A). [Related pubchem assays (depositor defined):AID504326, AID504355, AID504692, AID504904, AID504905]; type: functional
Sequence of 5-hydroxytryptamine receptor 5A (P47898 whole entry): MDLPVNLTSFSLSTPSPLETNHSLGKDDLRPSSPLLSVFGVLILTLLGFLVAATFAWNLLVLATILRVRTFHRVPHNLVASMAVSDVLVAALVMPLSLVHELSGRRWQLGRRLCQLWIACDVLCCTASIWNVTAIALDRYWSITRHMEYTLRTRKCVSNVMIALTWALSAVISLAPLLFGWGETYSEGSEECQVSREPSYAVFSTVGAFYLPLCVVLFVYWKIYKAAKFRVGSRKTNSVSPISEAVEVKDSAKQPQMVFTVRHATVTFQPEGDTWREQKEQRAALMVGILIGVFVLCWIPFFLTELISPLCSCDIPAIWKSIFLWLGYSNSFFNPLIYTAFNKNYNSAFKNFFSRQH

[10] = target: T4, Short transient receptor potential channel 4 (Mus musculus, UniProt Q9QUQ5); assay: calcium entry via TRPC4 opening agents – cell-based, HEK293 TRPC4/mu-opioid, Fluo-4 calcium, dose response (AID 434937); type: functional
T4 sequence (Q9QUQ5 whole entry): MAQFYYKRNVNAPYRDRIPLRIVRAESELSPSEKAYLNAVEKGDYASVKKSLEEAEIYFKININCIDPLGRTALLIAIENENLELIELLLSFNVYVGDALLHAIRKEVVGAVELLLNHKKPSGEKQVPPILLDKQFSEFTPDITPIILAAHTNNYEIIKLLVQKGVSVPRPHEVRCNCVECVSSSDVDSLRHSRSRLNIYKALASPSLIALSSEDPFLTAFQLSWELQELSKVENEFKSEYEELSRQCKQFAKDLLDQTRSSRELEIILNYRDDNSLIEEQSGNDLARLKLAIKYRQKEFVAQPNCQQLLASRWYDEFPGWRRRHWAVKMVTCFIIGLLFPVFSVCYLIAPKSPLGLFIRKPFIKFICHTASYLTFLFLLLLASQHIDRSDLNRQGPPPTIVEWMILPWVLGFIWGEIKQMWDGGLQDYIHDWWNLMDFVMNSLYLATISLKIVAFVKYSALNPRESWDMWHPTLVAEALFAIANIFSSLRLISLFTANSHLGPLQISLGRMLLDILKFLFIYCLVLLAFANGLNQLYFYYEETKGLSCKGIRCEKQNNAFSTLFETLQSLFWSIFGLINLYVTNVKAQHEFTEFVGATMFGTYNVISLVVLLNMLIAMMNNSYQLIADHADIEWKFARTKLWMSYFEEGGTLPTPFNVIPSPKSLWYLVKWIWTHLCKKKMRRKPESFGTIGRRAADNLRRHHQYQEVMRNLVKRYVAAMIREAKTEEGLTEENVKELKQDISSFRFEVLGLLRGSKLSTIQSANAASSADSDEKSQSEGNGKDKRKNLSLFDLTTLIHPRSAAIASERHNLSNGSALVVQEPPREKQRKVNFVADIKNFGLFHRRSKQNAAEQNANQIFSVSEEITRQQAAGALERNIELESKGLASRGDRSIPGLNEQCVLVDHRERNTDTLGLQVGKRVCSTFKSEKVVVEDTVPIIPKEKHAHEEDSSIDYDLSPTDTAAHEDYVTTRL

Mu-type opioid receptor = Mu-type opioid receptor (Homo sapiens, UniProt P35372); assay: (§3) Counterscreen for agonists of heterodimerization of the mu 1 (OPRM1) and delta 1 (OPRD1) opioid receptors: Luminescence-based cell-based high throughput dose response assay to identify agonists of OPRM1 homodimerization.; type: functional
[11] = target: Delta-type opioid receptor (Homo sapiens, UniProt P41143); assay: as §3, with “of OPRD1” for “of OPRM1”, “homodimerization. [Related pubchem assays (depositor defined):AID504326, AID504355, AID504692, AID504904, AID504905]” for “homodimerization.”; type: functional
Sequence of Delta-type opioid receptor (P41143 whole entry): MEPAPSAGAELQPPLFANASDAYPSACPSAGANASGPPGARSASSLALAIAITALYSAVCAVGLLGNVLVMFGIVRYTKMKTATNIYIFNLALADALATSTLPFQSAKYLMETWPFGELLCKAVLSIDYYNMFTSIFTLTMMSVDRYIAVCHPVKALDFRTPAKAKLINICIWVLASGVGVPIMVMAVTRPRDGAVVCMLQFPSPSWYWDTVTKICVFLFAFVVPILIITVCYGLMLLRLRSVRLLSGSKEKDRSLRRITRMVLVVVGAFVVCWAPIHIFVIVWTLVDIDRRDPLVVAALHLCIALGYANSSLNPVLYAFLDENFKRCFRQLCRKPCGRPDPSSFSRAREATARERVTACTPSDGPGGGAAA

Cysteine protease ATG4B = Cysteine protease ATG4B (Homo sapiens, UniProt Q9Y4P1); type: functional;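 also: Fluorescence-based dose-response confirmation assay measuring inhibition of ATG4B activity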
Phospholipase A2 = Phospholipase A2 (Homo sapiens, UniProt P04054); type: functional;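 also: confirmatory dose-response counterscreen on phospholipase A2, testing hits that came from an ultra-high-throughput screen for ATG4B inhibitors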
Sequence of Phospholipase A2 (P04054 whole entry): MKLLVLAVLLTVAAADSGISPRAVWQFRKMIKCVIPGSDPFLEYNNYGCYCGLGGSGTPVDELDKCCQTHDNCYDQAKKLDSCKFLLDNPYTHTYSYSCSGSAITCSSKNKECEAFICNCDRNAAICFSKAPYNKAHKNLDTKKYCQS

HeLa = assay: ATP-based viability loss in HeLa cells – cell-based, CellTiter-Glo luminescence, cherry-pick samples, cytotoxicity control for MITF activator project, dose response (AID 540259); type: functional; details: Homo sapiens
[12] = Luminescence Cell-Based Dose Response Follow up to Identify Inhibitors of Platelet Dense Granule Release. [Related pubchem assays (depositor defined):AID1663, AID1678, AID2398]; type: functional
Hexokinase-1 = Hexokinase-1 (Homo sapiens, UniProt P19367); assay: hexokinase 1 activity inhibitors, potency – biochemical, set 2, resazurin fluorescence coupled readout, selectivity assay for HKDC1 inhibitor project, SAR follow-up (AID 588356); type: functional
Sequence of Hexokinase-1 (P19367 whole entry): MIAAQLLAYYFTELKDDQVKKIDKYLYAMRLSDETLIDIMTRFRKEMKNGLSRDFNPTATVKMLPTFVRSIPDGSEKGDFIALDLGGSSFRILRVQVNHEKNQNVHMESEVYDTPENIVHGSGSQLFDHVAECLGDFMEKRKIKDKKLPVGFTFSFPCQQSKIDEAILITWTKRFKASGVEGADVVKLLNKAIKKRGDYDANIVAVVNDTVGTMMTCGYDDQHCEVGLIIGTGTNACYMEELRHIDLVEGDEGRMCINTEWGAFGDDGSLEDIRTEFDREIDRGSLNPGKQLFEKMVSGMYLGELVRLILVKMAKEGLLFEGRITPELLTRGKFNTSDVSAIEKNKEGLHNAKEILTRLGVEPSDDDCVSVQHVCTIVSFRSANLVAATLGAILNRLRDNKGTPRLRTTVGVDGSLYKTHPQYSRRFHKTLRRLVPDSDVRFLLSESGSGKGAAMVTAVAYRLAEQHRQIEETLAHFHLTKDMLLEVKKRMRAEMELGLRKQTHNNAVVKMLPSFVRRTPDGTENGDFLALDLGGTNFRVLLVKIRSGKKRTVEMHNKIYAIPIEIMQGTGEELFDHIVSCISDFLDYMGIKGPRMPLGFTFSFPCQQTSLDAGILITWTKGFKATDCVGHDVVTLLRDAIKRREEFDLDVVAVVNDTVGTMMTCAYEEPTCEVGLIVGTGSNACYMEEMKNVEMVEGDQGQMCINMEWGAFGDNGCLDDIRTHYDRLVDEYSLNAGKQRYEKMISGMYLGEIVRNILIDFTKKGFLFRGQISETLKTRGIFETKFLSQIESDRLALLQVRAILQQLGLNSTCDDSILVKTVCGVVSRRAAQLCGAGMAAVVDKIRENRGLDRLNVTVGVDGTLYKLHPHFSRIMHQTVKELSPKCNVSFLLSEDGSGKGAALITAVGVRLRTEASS

Hexokinase HKDC1 = Hexokinase HKDC1 (Homo sapiens, UniProt Q2TB90); assay: analog inhibition of human HKDC1 activity – biochemical, set 2, SAR follow-up (AID 588355); type: functional
Sequence of Hexokinase HKDC1 (Q2TB90 whole entry): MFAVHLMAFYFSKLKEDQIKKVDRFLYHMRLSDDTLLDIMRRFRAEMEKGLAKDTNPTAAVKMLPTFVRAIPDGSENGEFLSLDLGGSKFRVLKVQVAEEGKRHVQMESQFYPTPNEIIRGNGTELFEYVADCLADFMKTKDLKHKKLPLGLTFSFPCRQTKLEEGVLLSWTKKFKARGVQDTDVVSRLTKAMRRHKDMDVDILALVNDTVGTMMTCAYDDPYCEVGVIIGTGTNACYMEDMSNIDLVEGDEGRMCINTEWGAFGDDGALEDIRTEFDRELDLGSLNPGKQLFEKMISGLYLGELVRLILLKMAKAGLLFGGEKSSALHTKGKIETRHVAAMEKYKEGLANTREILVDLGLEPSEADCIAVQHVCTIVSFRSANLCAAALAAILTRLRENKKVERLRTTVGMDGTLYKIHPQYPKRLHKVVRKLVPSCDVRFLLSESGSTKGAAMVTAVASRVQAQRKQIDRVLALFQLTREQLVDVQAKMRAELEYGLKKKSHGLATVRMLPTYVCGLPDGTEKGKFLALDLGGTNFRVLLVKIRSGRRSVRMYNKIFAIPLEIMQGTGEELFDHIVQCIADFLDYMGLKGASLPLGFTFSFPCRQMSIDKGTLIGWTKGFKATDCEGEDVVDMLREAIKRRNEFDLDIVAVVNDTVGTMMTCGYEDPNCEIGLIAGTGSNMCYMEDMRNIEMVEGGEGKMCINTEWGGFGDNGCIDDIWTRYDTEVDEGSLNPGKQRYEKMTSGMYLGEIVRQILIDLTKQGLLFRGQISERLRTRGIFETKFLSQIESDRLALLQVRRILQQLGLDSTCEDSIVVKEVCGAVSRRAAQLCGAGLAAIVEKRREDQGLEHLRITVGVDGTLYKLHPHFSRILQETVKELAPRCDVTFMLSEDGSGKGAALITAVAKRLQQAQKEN

[13] = target: T4, Short transient receptor potential channel 4; assay: SAR Analysis for the identification of selective inhibits of the transient receptor potential cation channel C4 (TRPC4): Automated Electrophysiology_2. [Related pubchem assays (depositor defined):AID2256]; type: functional
[14] = target: Short transient receptor potential channel 6 (Mus musculus, UniProt Q61143); assay: mouse TRPC6 channel blockers, concentration series – HEK293 cells, membrane potential dye, IC50, selectivity assay for selective TRPC4 inhibitor project, dose response (AID 492987); type: functional, cell-based

Sequence of Voltage-gated inwardly rectifying potassium channel KCNH2 (Q12809 whole entry): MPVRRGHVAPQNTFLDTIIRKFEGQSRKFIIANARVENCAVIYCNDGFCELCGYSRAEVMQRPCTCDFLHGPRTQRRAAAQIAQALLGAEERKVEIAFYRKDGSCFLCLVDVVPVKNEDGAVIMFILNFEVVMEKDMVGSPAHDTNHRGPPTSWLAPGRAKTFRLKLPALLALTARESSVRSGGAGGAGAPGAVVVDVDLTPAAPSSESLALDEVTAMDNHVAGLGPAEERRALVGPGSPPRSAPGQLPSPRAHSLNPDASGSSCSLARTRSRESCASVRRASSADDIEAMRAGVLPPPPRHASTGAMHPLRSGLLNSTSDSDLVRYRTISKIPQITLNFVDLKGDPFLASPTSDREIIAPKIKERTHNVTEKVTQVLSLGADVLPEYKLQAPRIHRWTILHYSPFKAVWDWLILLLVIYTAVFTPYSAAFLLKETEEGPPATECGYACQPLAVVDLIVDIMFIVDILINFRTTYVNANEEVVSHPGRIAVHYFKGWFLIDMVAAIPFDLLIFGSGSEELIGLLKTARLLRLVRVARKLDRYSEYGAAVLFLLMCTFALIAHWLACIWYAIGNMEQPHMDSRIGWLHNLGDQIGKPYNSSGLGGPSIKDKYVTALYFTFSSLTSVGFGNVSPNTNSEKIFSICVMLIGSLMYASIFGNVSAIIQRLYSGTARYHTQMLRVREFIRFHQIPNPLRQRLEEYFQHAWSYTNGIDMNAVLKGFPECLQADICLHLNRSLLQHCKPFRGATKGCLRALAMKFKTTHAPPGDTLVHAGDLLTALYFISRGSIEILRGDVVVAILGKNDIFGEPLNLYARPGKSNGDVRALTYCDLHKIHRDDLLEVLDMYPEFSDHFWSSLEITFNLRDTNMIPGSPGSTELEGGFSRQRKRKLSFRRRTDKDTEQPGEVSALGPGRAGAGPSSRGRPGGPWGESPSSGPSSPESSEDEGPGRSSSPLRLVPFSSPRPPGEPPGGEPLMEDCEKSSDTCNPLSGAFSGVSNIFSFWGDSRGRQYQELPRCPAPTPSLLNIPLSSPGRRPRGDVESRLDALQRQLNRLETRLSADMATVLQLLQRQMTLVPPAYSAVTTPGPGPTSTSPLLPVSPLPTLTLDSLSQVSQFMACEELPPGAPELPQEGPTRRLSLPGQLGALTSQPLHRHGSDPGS

CCCCN1CCC(n2c(=O)[nH]c3ccccc32)CC1
AC50 [1]: 11.2 µM (inconclusive)

CCOc1cc(C(=S)N2CCOCC2)cc(Br)c1OS(=O)(=O)c1ccccc1
IC50 [2]: 8.96 µM (active) | IC50 [3]: > 49.8 µM (inactive) | IC50 (Orexin receptor type 2 [4]): > 50 µM (inactive) | IC50 [5]: 8.6 µM (active) | IC50 (CHO-K1): > 66.2 µM (inactive) | IC50 (Orexin receptor type 2 [6]): 6.2 µM (active) | IC50 [7]: 8.68 µM (active) | IC50 [8]: 4.56 µM (active)

CCOC(=O)C1(CCOc2ccccc2)CCN(Cc2ccc3c(c2)OCCO3)CC1
EC50 [9]: > 92.5 µM (inactive) | EC50 [10]: 1.33 µM (active) | EC50 (Mu-type opioid receptor): > 92.5 µM (inactive) | EC50 [11]: > 92.5 µM (inactive)

O=C(O)CCn1cc(/C=C\C(=O)c2ccc(Cl)cc2)c(-c2cccc(Br)c2)n1
IC50 (Cysteine protease ATG4B): 15.7 µM (active) | IC50 (Phospholipase A2): 14.9 µM (active)

Cc1cccc(-c2cc(N)n(-c3ccccc3)n2)c1
AC50 (HeLa): > 350 µM (inactive)

Cn1c(N)c(C#N)c(-c2ccccc2)c(C#N)c1=O
EC50 [12]: 1.74 µM (active)

CCCCN1C(=O)C(NC(C)=O)c2cc(OC)ccc21 (stereo unspecified)
IC50 (Hexokinase-1): > 80 µM (inactive) | IC50 (Hexokinase HKDC1): > 80 µM (inactive)

CCc1ccc2nc(N3CCCCC3)cc(C)c2c1
IC50 [13]: 3.73 µM (active) | IC50 [14]: 15 µM (active)
